Measurements taken from article PMC10722513.

Experiment: Au(I)-catalysed intramolecular Trp C2-H alkynylation: peptide-EBX (4-ethynylbenzoyl bis-CF3-benziodoxole on Lys side chain or N-terminus) + AuCl·Me2S, open flask
Settings: HFIP, 5.0 mM, 25.0 °C, 0.17 h

Compound: CC(=O)N[C@H]1CCCCNC(=O)c2ccc(cc2)C#Cc2[nH]c3ccccc3c2C[C@@H](C(=O)O)NC(=O)[C@H](Cc2ccccc2)NC(=O)[C@H](C)NC(=O)[C@H](CCC(N)=O)NC1=O [Ac-K(EBX)-Q-A-F-W-OH]
- ring closure, isolated yield (from CC(=O)N[C@@H](CCCCNC(=O)c1ccc(C#CI2OC(C(F)(F)F)(C(F)(F)F)c3ccccc32)cc1)C(=O)N[C@@H](CCC(N)=O)C(=O)N[C@@H](C)C(=O)N[C@@H](Cc1ccccc1)C(=O)N[C@@H](Cc1c[nH]c2ccccc12)C(=O)O, 28-membered ring): 56%

Compound: N=C(N)NCCC[C@@H]1NC(=O)[C@H](CCCNC(=N)N)NC(=O)[C@H](CCCNC(=N)N)NC(=O)[C@H](CCCNC(=N)N)NC(=O)[C@H](Cc2ccc3ccccc3c2)NC(=O)[C@H](Cc2ccccc2)NC(=O)c2ccc(cc2)C#Cc2[nH]c3ccccc3c2C[C@@H](C(N)=O)NC1=O [EBX-F-Nal(2)-R-R-R-R-W-NH2]
- ring closure, isolated yield (from N=C(N)NCCC[C@H](NC(=O)[C@H](CCCNC(=N)N)NC(=O)[C@H](CCCNC(=N)N)NC(=O)[C@H](CCCNC(=N)N)NC(=O)[C@H](Cc1ccc2ccccc2c1)NC(=O)[C@H](Cc1ccccc1)NC(=O)c1ccc(C#CI2OC(C(F)(F)F)(C(F)(F)F)c3ccccc32)cc1)C(=O)N[C@@H](Cc1c[nH]c2ccccc12)C(N)=O, 30-membered ring): 57%

Compound: CSCC[C@@H]1NC(=O)[C@@H](NC(C)=O)CCCCNC(=O)c2ccc(cc2)C#Cc2[nH]c3ccccc3c2C[C@@H](C(=O)O)NC(=O)[C@H](Cc2ccccc2)NC(=O)[C@H](C)NC1=O [Ac-K(EBX)-M-A-F-W-OH]
- ring closure, isolated yield (from CSCC[C@H](NC(=O)[C@H](CCCCNC(=O)c1ccc(C#CI2OC(C(F)(F)F)(C(F)(F)F)c3ccccc32)cc1)NC(C)=O)C(=O)N[C@@H](C)C(=O)N[C@@H](Cc1ccccc1)C(=O)N[C@@H](Cc1c[nH]c2ccccc12)C(=O)O, 28-membered ring): 0%

Compound: CC(=O)N[C@H](C(=O)N[C@@H](CO)C(=O)N[C@@H](Cc1ccccc1)C(=O)N[C@H]1CCCCNC(=O)c2ccc(cc2)C#Cc2[nH]c3ccccc3c2C[C@@H](C(=O)N[C@@H](C)C(=O)N[C@@H](CC(C)C)C(=O)N[C@@H](CC(C)C)C(=O)N[C@@H](Cc2c[nH]c3ccccc23)C(N)=O)NC(=O)[C@H](Cc2ccc(O)cc2)NC(=O)[C@H](CCC(=O)O)NC1=O)[C@@H](C)O [Ac-T-S-F-K(EBX)-E-Y-W-A-L-L-W-NH2]
- ring closure, isolated yield (from CC(=O)N[C@H](C(=O)N[C@@H](CO)C(=O)N[C@@H](Cc1ccccc1)C(=O)N[C@@H](CCCCNC(=O)c1ccc(C#CI2OC(C(F)(F)F)(C(F)(F)F)c3ccccc32)cc1)C(=O)N[C@@H](CCC(=O)O)C(=O)N[C@@H](Cc1ccc(O)cc1)C(=O)N[C@@H](Cc1c[nH]c2ccccc12)C(=O)N[C@@H](C)C(=O)N[C@@H](CC(C)C)C(=O)N[C@@H](CC(C)C)C(=O)N[C@@H](Cc1c[nH]c2ccccc12)C(N)=O)[C@@H](C)O, 25-membered ring): 45%

Compound: CC(=O)N[C@H]1CCCCNC(=O)c2ccc(cc2)C#Cc2[nH]c3ccccc3c2C[C@@H](C(=O)O)NC(=O)[C@H](Cc2ccccc2)NC(=O)[C@H](C)NC(=O)[C@H](CC(=O)O)NC1=O [Ac-K(EBX)-D-A-F-W-OH]
- ring closure, isolated yield (from CC(=O)N[C@@H](CCCCNC(=O)c1ccc(C#CI2OC(C(F)(F)F)(C(F)(F)F)c3ccccc32)cc1)C(=O)N[C@@H](CC(=O)O)C(=O)N[C@@H](C)C(=O)N[C@@H](Cc1ccccc1)C(=O)N[C@@H](Cc1c[nH]c2ccccc12)C(=O)O, 28-membered ring): 51%

Compound: N=C(N)NCCC[C@@H]1NC(=O)[C@H](CCCNC(=N)N)NC(=O)[C@H](CCCNC(=N)N)NC(=O)[C@H](CCCNC(=N)N)NC(=O)[C@H](Cc2ccc3ccccc3c2)NC(=O)c2ccc(cc2)C#Cc2[nH]c3ccccc3c2C[C@@H](C(N)=O)NC1=O [EBX-Nal(2)-R-R-R-R-W-NH2]
- ring closure, isolated yield (from N=C(N)NCCC[C@H](NC(=O)[C@H](CCCNC(=N)N)NC(=O)[C@H](CCCNC(=N)N)NC(=O)[C@H](CCCNC(=N)N)NC(=O)[C@H](Cc1ccc2ccccc2c1)NC(=O)c1ccc(C#CI2OC(C(F)(F)F)(C(F)(F)F)c3ccccc32)cc1)C(=O)N[C@@H](Cc1c[nH]c2ccccc12)C(N)=O, 27-membered ring): 53%

Compound: CC(=O)N[C@H]1CCCCNC(=O)c2ccc(cc2)C#Cc2[nH]c3ccccc3c2C[C@@H](C(=O)O)NC(=O)[C@H](Cc2ccccc2)NC(=O)[C@H](C)NC(=O)[C@H](CC(N)=O)NC1=O [Ac-K(EBX)-N-A-F-W-OH]
- ring closure, isolated yield (from CC(=O)N[C@@H](CCCCNC(=O)c1ccc(C#CI2OC(C(F)(F)F)(C(F)(F)F)c3ccccc32)cc1)C(=O)N[C@@H](CC(N)=O)C(=O)N[C@@H](C)C(=O)N[C@@H](Cc1ccccc1)C(=O)N[C@@H](Cc1c[nH]c2ccccc12)C(=O)O, 28-membered ring): 52%

Compound: CC(C)C[C@@H]1NC(=O)[C@H](CC(=O)O)NC(=O)[C@H](CC(=O)O)NC(=O)[C@H](Cc2ccccc2)NC(=O)[C@H](Cc2ccccc2)NC(=O)CNC(=O)c2ccc(cc2)C#Cc2[nH]c3ccccc3c2C[C@@H](C(=O)N[C@@H](Cc2ccccc2)C(=O)N[C@H](C(=O)N[C@@H](C)C(N)=O)C(C)C)NC(=O)[C@H](Cc2ccc(O)cc2)NC1=O [EBX-G-F-F-D-D-L-Y-W-F-V-A-NH2]
- ring closure, isolated yield (from CC(C)C[C@H](NC(=O)[C@H](CC(=O)O)NC(=O)[C@H](CC(=O)O)NC(=O)[C@H](Cc1ccccc1)NC(=O)[C@H](Cc1ccccc1)NC(=O)CNC(=O)c1ccc(C#CI2OC(C(F)(F)F)(C(F)(F)F)c3ccccc32)cc1)C(=O)N[C@@H](Cc1ccc(O)cc1)C(=O)N[C@@H](Cc1c[nH]c2ccccc12)C(=O)N[C@@H](Cc1ccccc1)C(=O)N[C@H](C(=O)N[C@@H](C)C(N)=O)C(C)C, 33-membered ring): 56%
